How the values were obtained:
[1] = target: T1, peripheral benzodiazepine receptors (Rattus norvegicus, UniProt P16257); assay: benzodiazepine receptor binding (test of LeFur et al.), peripheral
T1 construct: from tissue; Rat heart membranes according to own knowledge of the cited Le Fur et al. method
Experimental: Compounds of the invention were assessed for their binding to the benzodiazepine receptor by the test of Speth et al. [Life Sci. 24, 351 (1979)] for central benzodiazepine receptors and LeFur et al. [Life Sci. 33, 449 (1983)] for peripheral receptors. The compounds were tested first at 1.00E-09, 1.0E-07 and 1.0E-05 M in single determination. […] The specific ligand binding to the receptor is defined as the difference between the total binding and the nonspecific binding determined in the presence of an excess of unlabelled ligand. In each experiment, the respective reference compound was tested concurrently with the test compounds in order to assess the assay suitability. It was tested at several concentrations (for IC50 value determination), and the data were compared with historical values. The assay was rendered valid if suitability criteria were met.
However, the invention is not limited to the compounds found in the Tables.

[2] = maze test, which tests anxiety; format: in vivo; conditions: 10 mg/kg
Experimental: The compounds of Example 1d (also found in Example 6d), Example 22d, and Example 35d, were also tested in vivo using the maze test, which tests anxiety [Montgomery, J. Comparative and Physiological Psychology 48, 254-60 (1955); Handley et al., Naunyn-Schmiedeberg's Archives of Pharmacology 327, 1-5 (1984); Lister, Psychopharm. 92, 180-85 (1987); Pellow et al., J. Neuroscience Methods 14, 149-67 (1985); Rodgers et al., Ethology and Psychopharmacology, S. J. Cooper and C. A. Hendrie (eds), John Wiley & Sons, Ltd., 9-43 (1994); and Trullas et al., Psychopharm. 111, 323-31 (1993)]. The results of the maze test for these compounds are found in FIGS. 1a, 1b, 2a, 2b, 3a, and 3b. FIGS. 1a, 2a, and 3a are graphs of the Number of Entries in Open Arms vs. mg/kg (dose of administered compound). FIGS. 1b, 2b, and 3b plot the Percent of Time Spent in Open Arms vs. mg/kg (dose of administered compound). […] The results of the maze test are accepted by persons of skill in the art as predictive of therapeutic utility.

T1 sequence (P16257 whole entry): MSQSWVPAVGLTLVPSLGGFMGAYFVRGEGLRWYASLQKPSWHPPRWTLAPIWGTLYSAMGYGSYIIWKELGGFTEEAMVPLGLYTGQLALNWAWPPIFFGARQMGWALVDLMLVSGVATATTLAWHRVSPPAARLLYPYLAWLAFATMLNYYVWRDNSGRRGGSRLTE

Structure (SMILES)	IC50 ([1]; Table 1a)	other results
Cc1ccc(-c2nc3ccc(C)cn3c2CC(=O)c2cccn2C)cc1	> 10000 nM	–
Cc1ccc(-c2nc3ccc(C)cn3c2CC(=O)c2c(C)nc3ccccn23)cc1	1600 nM	–
Cc1ccc(-c2nc3ccc(C)cn3c2CC(=O)c2cc(C)n[nH]2)cc1	> 10000 nM	–
Cc1ccc(-c2nc3ccc(C)cn3c2CC(=O)c2cc3ccccc3n2C)cc1	540 nM	–
Cc1ccc(-c2nc3ccc(C)cn3c2CC(=O)c2cnn3c(C)cc(C)nc23)cc1	> 10000 nM	–
COc1ccc(-c2nc3ccc(C)cn3c2CC(=O)c2cccn2C)cc1	–	IC50 ([1]; Table 1b): 1700 nM
COc1ccc(-c2nc3ccc(C)cn3c2CC(=O)c2cnn3c(C)cc(C)nc23)cc1	–	IC50 ([1]; Table 1b): > 10000 nM
Cc1ccc(-c2nc3ccc(C)cn3c2C2CCN(C)C2=O)cc1 (stereo not shown)	–	IC50 ([1]; Table 2): > 10000 nM
Cc1ccc(-c2nc3ccc(C)cn3c2CC(=O)c2cccs2)cc1 [Example 1d, 2-(6-Methyl-2-p-tolyl-imidazo[1,2-a]pyridin-3-yl)-1-thiophen-2-yl-ethanone]	–	maze test activity (Number of Entries in Open Arms, Percent of Time Spent in Open Arms) [2]: statistically significant activity
COc1ccsc1C(=O)Cc1c(-c2ccc(C)cc2)nc2ccc(C)cn12 [Example 22D, 1-(3-Methoxy-thiophen-2-yl)-2-(6-methyl-2-p-tolyl-imidazo[1,2-a]pyridin-3-yl)-ethanone]	–	maze test activity (Number of Entries in Open Arms, Percent of Time Spent in Open Arms) [2]: statistically significant activity

Source: patent US7723324B2 (priority 2003, dated 2010)
